Laboratory results as given in the supplement of paper PMC3068080.

Assays:
[1] = tested on: TGFBR2 mRNA; test: remaining TGFBR2 mRNA relative to control siRNA (off-target knock-down) (fraction of control); quantification method: branched DNA; higher = less knock-down
Method: (§1)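 Screen-hit siRNA duplexes (19-mer plus 3' dTdT overhang) were transiently transfected into HaCaT cells in 12-well plates. After 48 h, TGFBR1 and TGFBR2 mRNA were quantified by branched DNA assay (QuantiGene, normalised to HPRT1) or by SYBR qPCR (normalised to HPRT1/SMAD4). Values are the remaining mRNA relative to control-siRNA-transfected cells; 1-2 biological replicates.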

[2] = tested on: TGFBR1 mRNA; test: remaining TGFBR1 mRNA relative to control siRNA (off-target knock-down) (fraction of control); quantification method: branched DNA; higher = less knock-down
Method: as §1

| Sequence | remaining TGFBR2 mRNA [1] | remaining TGFBR1 mRNA [2] |
| --- | --- | --- |
| UAUCUCAUGAAAGCGCUUCTT | 0.25 | 1.12 |
| UCCUUGUCCUUGGACAGUGTT | 0.24 | 1.14 |
| AUCCUUGGAGAUGAGCUGGTT | 0.16 | 0.72 |
| ACAGCCUCGAACACUGACATT | 0.58 | 1.04 |
| CAGAGCGAUCACCUUGAACTT | 0.17 | 0.66 |
| UUGGAGCCCUUUCCUUUCUTT | 0.26 | 1.07 |
| AGUGGUACCACGAGCAAAGTT | 0.66 | 0.88 |
| CUUGGUACAGCACAUGGUUTT | 0.82 | 0.55 |
| UCCAAGUCGAGAAGAGACCTT | 0.46 | 0.9 |
| UGGGCUUUUCUCUUCUCUCTT | 1.43 | 1.47 |
| CCCAAGUCAUCCUGGUUGUTT | 0.67 | 0.83 |
| UGGACAUGGAGUGGCCUGATT | 0.55 | 1.09 |
| AUGUAUAGUCACGCAGUUCTT | 0.24 | 0.98 |
| UCCUGGAAGUUUGACGUCCTT | 1.41 | 0.88 |
| CUACCAUCAAUCCGGUAGGTT | 0.84 | 0.94 |
| UUGUCAAAGUGGAACGCUCTT | 0.29 | 0.83 |
| ACUGGAUCAGUCGCAGAAUTT | 0.38 | 1.15 |
| UGGCCGUCAAUGUAUUUCUTT | 0.7 | 1.25 |
| AAGUCUGACUCGGUAAGUATT | 0.72 | 0.87 |
| AUGCUCCCUCUCAUACUCUTT | 0.39 | 0.9 |
| UUAUAAGCCAAAGUGCGUCTT | 1.66 | 0.6 |
| UUGUGCUGCAUACGGAGCCTT | 0.45 | 1.69 |
| GGUGCCAGGCAUUUUAUCCTT | 0.9 | 1.06 |
| UGGUGAAGAGGCACUUAACTT | 1.06 | 0.69 |
| UGAAUAACCCUCUGGACAGTT | 0.83 | 0.45 |

| Sequence | remaining TGFBR2 mRNA [1] | remaining TGFBR1 mRNA [2] |
| --- | --- | --- |
| AUGCCAUUGUGCAUUGUCATT | 0.36 | 0.85 |
| UCUGGUCUCAGCCAUUGAATT | 1.08 | 0.26 |
| GUUCUUGGGCUAUGUCCAATT | 0.32 | 0.89 |
| AGAAGUGUGACACGGGUCUTT | 0.15 | 0.93 |
| UCAAGUGCAGUAGUAGAUGTT | 0.51 | 1.09 |
| UCCAGCUGCAUUCCUCGCUTT | 0.35 | 0.75 |
| UAUAACUCUCAGGGGAUAUTT | 0.4 | 1.07 |
| UCUGCAACGUAGAGGUUAUTT | 0.79 | 0.22 |
| UCAAGUGCAUCUCCACAGCTT | 0.23 | 1.29 |
| UCCCGUACUGGUUCUGGGGTT | 0.81 | 1.1 |
| UGUCCUGGUCACACUUCCATT | 0.5 | 0.23 |
| UGUAGUGAAUUCCAAAGAGTT | 0.41 | 0.47 |
| UCACCUUGCAGGAAGGAAGTT | 0.71 | 1.26 |
| UACUUAAAGCCAGGGCCACTT | 0.77 | 1.32 |
| UAUAGUCCACAGACACGCUTT | 0.97 | 0.92 |
| UGUUCUUGAAGUCCCGCAGTT | 0.78 | 1.69 |
| UGUGUAGCACAUGGGACACTT | 0.73 | 1.05 |
| AUAAGCAGUGAGAACGAGCTT | 1.26 | 0.5 |
| GGGCUGUCAAUGACAGCUUTT | 0.6 | 0.82 |
| UCCUUGGUCUCAUCUGCCUTT | 0.43 | 1.05 |
| AGCGGUGCGUUUCAGGCUGTT | 0.7 | 1.06 |
| AUGUAUAGGUAGUGCACAGTT | 0.35 | 0.98 |
| UCAUAAGCAUGCUCCACACTT | 0.62 | 0.14 |
| UUUCAUUCCAUUGGAAUUUTT | 0.59 | 1.25 |
